According to ChEMBL document CHEMBL2157909, “Design, synthesis, spectral and biological evaluation of novel 1-allyl substituted 2,6-diphenylpiperidin-4-ones and its derivatives of oximes/oxime ethers” (2012):
≈ marks a conversion by molar mass, not a printed value.

Assays:
[1] = system: Aspergillus flavus; assay: Antifungal activity against Aspergillus flavus ATCC 525 after 72 to 96 hrs by two fold serial dilution method; type: functional
[2] = system: Penicillium chrysogenum; assay: Antifungal activity against Penicillium chrysogenum ATCC 28089 after 72 to 96 hrs by two fold serial dilution method; type: functional
[3] = system: Escherichia coli; assay: Antibacterial activity against Escherichia coli ATCC 26032 after 24 hrs by two fold serial dilution method; type: functional; conditions: ATCC 26032, 24 h
[4] = system: Rhizopus; assay: Antifungal activity against Rhizopus sp. ATCC 2842 after 72 to 96 hrs by two fold serial dilution method; type: functional
[5] = system: Salmonella typhi; assay: Antibacterial activity against Salmonella typhi ATCC 25021 after 24 hrs by two fold serial dilution method; type: functional, Salmonella enterica subsp. enterica serovar Typhi; conditions: Salmonella enterica, ATCC 25021, 24 h
[6] = Ratio of MIC for Bacillus subtilis ATCC 530 to MIC for Salmonella typhi ATCC 25021; type: functional
[7] = system: Aspergillus niger; assay: Antifungal activity against Aspergillus niger ATCC 635 after 72 to 96 hrs by two fold serial dilution method; type: functional
[8] = system: Bacillus subtilis; assay: Antibacterial activity against Bacillus subtilis ATCC 530 after 24 hrs by two fold serial dilution method; type: functional; conditions: ATCC 530, 24 h
[9] = Ratio of MIC for Pseudomonas ATCC 27853 to MIC for Salmonella typhi ATCC 25021; type: functional
[10] = system: Fusarium oxysporum; assay: Antifungal activity against Fusarium oxysporum ATCC 48112 after 72 to 96 hrs by two fold serial dilution method; type: functional
[11] = system: Staphylococcus aureus; assay: Antibacterial activity against Staphylococcus aureus ATCC 25930 after 24 hrs by two fold serial dilution method; type: functional; conditions: ATCC 25930, 24 h
[12] = system: Pseudomonas; assay: Antibacterial activity against Pseudomonas ATCC 27853 after 24 hrs by two fold serial dilution method; type: functional; conditions: ATCC 27853, 24 h

Row | Structure (SMILES) | MIC [1] [µg/mL] | MIC [2] [µg/mL] | MIC [3] [µg/mL] | MIC [4] [µg/mL] | MIC [5] [µg/mL] | Ratio [6] | MIC [7] [µg/mL] | MIC [8] [µg/mL] | Ratio [9] | MIC [10] [µg/mL] | MIC [11] [µg/mL] | MIC [12] [µg/mL]
1 | C=CCN1[C@H](c2ccc(C)cc2)C/C(=N\O)[C@@H](C)[C@@H]1c1ccc(C)cc1 (relative stereo) | 50 (≈ 143 µM) | 200 (≈ 574 µM) | 50 (≈ 143 µM) | 100 (≈ 287 µM) | 12.5 (≈ 35.9 µM) | 3 | 12.5 (≈ 35.9 µM) | 50 (≈ 143 µM) | 2 | 25 (≈ 71.7 µM) | 200 (≈ 574 µM) | 25 (≈ 71.7 µM)
2 | C=CCN1[C@H](c2ccc(C)cc2)CC(=O)[C@@H](C)[C@@H]1c1ccc(C)cc1 (relative stereo) | 50 (≈ 150 µM) | 25 (≈ 75 µM) | 25 (≈ 75 µM) | 6.25 (≈ 18.7 µM) | 12.5 (≈ 37.5 µM) | 3 | 50 (≈ 150 µM) | 100 (≈ 300 µM) | 2 | 25 (≈ 75 µM) | 50 (≈ 150 µM) | 50 (≈ 150 µM)
3 | C=CCN1[C@H](c2ccccc2)[C@@H](C)/C(=N/O)[C@@H](C)[C@@H]1c1ccccc1 (relative stereo) | 100 (≈ 299 µM) | 100 (≈ 299 µM) | 50 (≈ 149 µM) | 200 (≈ 598 µM) | 100 (≈ 299 µM) | – | 50 (≈ 149 µM) | 25 (≈ 74.7 µM) | – | 50 (≈ 149 µM) | 50 (≈ 149 µM) | 50 (≈ 149 µM)
4 | C=CCN1[C@H](c2ccccc2)C/C(=N\OCc2ccccc2)[C@@H](CC)[C@@H]1c1ccccc1 (relative stereo) | 100 (≈ 236 µM) | 12.5 (≈ 29.4 µM) | 6.25 (≈ 14.7 µM) | 12.5 (≈ 29.4 µM) | 25 (≈ 58.9 µM) | – | 50 (≈ 118 µM) | 50 (≈ 118 µM) | – | 25 (≈ 58.9 µM) | 200 (≈ 471 µM) | 100 (≈ 236 µM)
5 | C=CCN1[C@H](c2ccccc2)C/C(=N\O)[C@@H](CC)[C@@H]1c1ccccc1 (relative stereo) | 6.25 (≈ 18.7 µM) | 50 (≈ 149 µM) | 100 (≈ 299 µM) | 50 (≈ 149 µM) | 25 (≈ 74.7 µM) | – | 12.5 (≈ 37.4 µM) | 12.5 (≈ 37.4 µM) | – | 25 (≈ 74.7 µM) | 25 (≈ 74.7 µM) | 50 (≈ 149 µM)
6 | C=CCN1[C@H](c2ccc(OC)cc2)C/C(=N\O)[C@@H](C)[C@@H]1c1ccc(OC)cc1 (relative stereo) | 12.5 (≈ 32.9 µM) | 100 (≈ 263 µM) | 50 (≈ 131 µM) | 25 (≈ 65.7 µM) | 100 (≈ 263 µM) | – | 50 (≈ 131 µM) | 100 (≈ 263 µM) | – | 25 (≈ 65.7 µM) | 25 (≈ 65.7 µM) | 12.5 (≈ 32.9 µM)
7 | C=CCN1[C@@H](c2ccccc2)C(C)(C)/C(=N/O)C[C@H]1c1ccccc1 (relative stereo) | 25 (≈ 74.7 µM) | 12.5 (≈ 37.4 µM) | 100 (≈ 299 µM) | 25 (≈ 74.7 µM) | 100 (≈ 299 µM) | – | 25 (≈ 74.7 µM) | 25 (≈ 74.7 µM) | – | 50 (≈ 149 µM) | 12.5 (≈ 37.4 µM) | 50 (≈ 149 µM)
8 | C=CCN1[C@H](c2ccccc2)CC(=O)[C@@H](C)[C@@H]1c1ccccc1 (relative stereo) | 50 (≈ 164 µM) | 50 (≈ 164 µM) | 100 (≈ 327 µM) | 200 (≈ 655 µM) | 50 (≈ 164 µM) | – | 50 (≈ 164 µM) | 200 (≈ 655 µM) | – | 100 (≈ 327 µM) | 100 (≈ 327 µM) | 200 (≈ 655 µM)
9 | C=CCN1[C@@H](c2ccccc2)C/C(=N/OCc2ccccc2)C[C@H]1c1ccccc1 (relative stereo) | 100 (≈ 252 µM) | 100 (≈ 252 µM) | 6.25 (≈ 15.8 µM) | 50 (≈ 126 µM) | 100 (≈ 252 µM) | – | 12.5 (≈ 31.5 µM) | 25 (≈ 63 µM) | – | 50 (≈ 126 µM) | 50 (≈ 126 µM) | 200 (≈ 504 µM)
10 | C=CCN1[C@@H](c2ccccc2)CC(=O)C[C@H]1c1ccccc1 | 100 (≈ 343 µM) | 12.5 (≈ 42.9 µM) | 200 (≈ 686 µM) | 50 (≈ 172 µM) | 50 (≈ 172 µM) | – | 25 (≈ 85.8 µM) | 100 (≈ 343 µM) | – | 100 (≈ 343 µM) | 6.25 (≈ 21.4 µM) | 25 (≈ 85.8 µM)
11 | C=CCN1[C@H](c2ccc(Cl)cc2)C/C(=N\O)[C@@H](C)[C@@H]1c1ccc(Cl)cc1 (relative stereo) | 50 (≈ 128 µM) | 50 (≈ 128 µM) | 100 (≈ 257 µM) | 25 (≈ 64.2 µM) | 12.5 (≈ 32.1 µM) | – | 6.25 (≈ 16.1 µM) | 50 (≈ 128 µM) | – | 12.5 (≈ 32.1 µM) | 6.25 (≈ 16.1 µM) | 50 (≈ 128 µM)
12 | C=CCN1[C@H](c2ccccc2)C/C(=N\O)[C@@H](C)[C@@H]1c1ccccc1 (relative stereo) | 200 (≈ 624 µM) | 100 (≈ 312 µM) | 50 (≈ 156 µM) | 25 (≈ 78 µM) | 100 (≈ 312 µM) | – | 50 (≈ 156 µM) | 50 (≈ 156 µM) | – | 100 (≈ 312 µM) | 100 (≈ 312 µM) | 200 (≈ 624 µM)
13 | C=CCN1[C@H](c2ccc(Cl)cc2)C/C(=N\OCc2ccccc2)[C@@H](C)[C@@H]1c1ccc(Cl)cc1 (relative stereo) | 12.5 (≈ 26.1 µM) | 6.25 (≈ 13 µM) | 12.5 (≈ 26.1 µM) | 6.25 (≈ 13 µM) | 50 (≈ 104 µM) | – | 25 (≈ 52.1 µM) | 25 (≈ 52.1 µM) | – | 25 (≈ 52.1 µM) | 6.25 (≈ 13 µM) | 100 (≈ 209 µM)
14 | C=CCN1[C@H](c2ccccc2)[C@@H](C)/C(=N/OCc2ccccc2)[C@@H](C)[C@@H]1c1ccccc1 (relative stereo) | 100 (≈ 236 µM) | 50 (≈ 118 µM) | 100 (≈ 236 µM) | 100 (≈ 236 µM) | 50 (≈ 118 µM) | – | 200 (≈ 471 µM) | 100 (≈ 236 µM) | – | 50 (≈ 118 µM) | 12.5 (≈ 29.4 µM) | 25 (≈ 58.9 µM)
15 | C=CCN1[C@@H](c2ccccc2)C(C)(C)C(=O)C[C@H]1c1ccccc1 (relative stereo) | 25 (≈ 78.3 µM) | 25 (≈ 78.3 µM) | 25 (≈ 78.3 µM) | 100 (≈ 313 µM) | 12.5 (≈ 39.1 µM) | – | 50 (≈ 157 µM) | 100 (≈ 313 µM) | – | 50 (≈ 157 µM) | 25 (≈ 78.3 µM) | 25 (≈ 78.3 µM)
16 | C=CCN1[C@H](c2ccc(Cl)cc2)CC(=O)[C@@H](C)[C@@H]1c1ccc(Cl)cc1 (relative stereo) | 25 (≈ 66.8 µM) | 6.25 (≈ 16.7 µM) | 12.5 (≈ 33.4 µM) | 25 (≈ 66.8 µM) | 12.5 (≈ 33.4 µM) | – | 50 (≈ 134 µM) | 50 (≈ 134 µM) | – | 12.5 (≈ 33.4 µM) | 25 (≈ 66.8 µM) | 50 (≈ 134 µM)
17 | C=CCN1[C@H](c2ccccc2)CC(=O)[C@@H](CC)[C@@H]1c1ccccc1 (relative stereo) | 100 (≈ 313 µM) | 25 (≈ 78.3 µM) | 50 (≈ 157 µM) | 12.5 (≈ 39.1 µM) | 100 (≈ 313 µM) | – | 25 (≈ 78.3 µM) | 12.5 (≈ 39.1 µM) | – | 50 (≈ 157 µM) | 100 (≈ 313 µM) | 100 (≈ 313 µM)
18 | C=CCN1[C@H](c2ccccc2)[C@@H](C)C(=O)[C@@H](C)[C@@H]1c1ccccc1 | 100 (≈ 313 µM) | 50 (≈ 157 µM) | 100 (≈ 313 µM) | 200 (≈ 626 µM) | 100 (≈ 313 µM) | – | 100 (≈ 313 µM) | 25 (≈ 78.3 µM) | – | 50 (≈ 157 µM) | 12.5 (≈ 39.1 µM) | 50 (≈ 157 µM)
